In PubChem BioAssay (NCI) one finds TGI and GI50 data, which are given here for eleven compounds.

Several values for one entry are separate records, joined by “and”; a condition that tells them apart may be missing. Equal entries are not always repeated.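 Five concentrations, 48 hours, 96-well plates. The concentration for 50% growth inhibition is given as GI50. At the TGI there is no net growth.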

Test systems include CCRF-CEM leukemia; HCT-116 colon; HOP-62 NSCLC; MALME-3M melanoma; NCI-H226 lung; NCI-H460 lung; SF-539 CNS; SK-MEL-2 melanoma; SK-OV-3 ovarian; SW-620 colon; UACC-257 melanoma.
Test in all cases: inhibition of tumour cell growth, NCI panel, 48 h

For the compound `Cc1ccc(Sc2ccccc2[N+](=O)[O-])cc1`, the TGI with CCRF-CEM leukemia is greater than 100 µM; in the test on HCT-116 colon it was greater than 100 µM; in the test on HOP-62 NSCLC, greater than 100 µM; with MALME-3M melanoma, greater than 100 µM; in the test with NCI-H226 lung, 71.2 µM; with NCI-H460 lung, greater than 100 µM. The TGI in the test on SF-539 CNS is greater than 100 µM; in the test on SK-MEL-2 melanoma, greater than 100 µM; with SK-OV-3 ovarian it was greater than 100 µM; in the test on SW-620 colon, greater than 100 µM; with UACC-257 melanoma, 67.8 µM.

Regarding `O=C1Nc2cc([N+](=O)[O-])c(Br)cc2C1=O`, the TGI with CCRF-CEM leukemia was 32.1 µM; in the test with HOP-62 NSCLC, 75.1 µM; with MALME-3M melanoma it was 46.4 µM; with NCI-H226 lung it was 76.4 µM; in the test on NCI-H460 lung, greater than 100 µM; in the test on SF-539 CNS, 41 µM. For the same compound, the TGI in the test with SK-MEL-2 melanoma is 71.9 µM; in the test with SK-OV-3 ovarian, greater than 100 µM; in the test with SW-620 colon, 38.6 µM; with UACC-257 melanoma it was 35.1 µM.

In the case of `CC(C)OP(=O)(OC(C)C)C1=NN(c2ccc([N+](=O)[O-])cc2)C(P(=O)(OC(C)C)OC(C)C)=NN1c1ccc([N+](=O)[O-])cc1`, the TGI with CCRF-CEM leukemia, in the test on HCT-116 colon, in the test on HOP-62 NSCLC, in the test on MALME-3M melanoma, in the test on NCI-H226 lung and with NCI-H460 lung was greater than 100 µM throughout. Further, the TGI in the test with SF-539 CNS, in the test on SK-MEL-2 melanoma, in the test on SK-OV-3 ovarian and in the test on SW-620 colon was greater than 100 µM each time.

With `CCOC(=O)c1cc2c(OCc3ccccc3)c(OC)cc3c2c(n1)N(c1ccc(OC)cc1)C(C)C3` (stereo not given), the TGI in the test with CCRF-CEM leukemia, with HCT-116 colon, in the test on HOP-62 NSCLC, in the test on MALME-3M melanoma, in the test with NCI-H460 lung and in the test on SK-MEL-2 melanoma was greater than 50 µM each time. Further, the TGI in the test on SK-OV-3 ovarian and in the test on SW-620 colon was greater than 50 µM in each case.

In the case of `Cc1cn(C2CC(CCCO)C(CO)O2)c(=O)[nH]c1=O` (stereo not given), the GI50 in the test on CCRF-CEM leukemia was greater than 100 µM; in the test on NCI-H226 lung, > 100 µM and 18.4 µM. The TGI in the test on CCRF-CEM leukemia, in the test on HCT-116 colon, in the test on HOP-62 NSCLC, in the test with MALME-3M melanoma, with NCI-H226 lung and with NCI-H460 lung was greater than 100 µM in each case. The TGI in the test on SK-MEL-2 melanoma, with SK-OV-3 ovarian, in the test on SW-620 colon and with UACC-257 melanoma was greater than 100 µM each time.

As to `O=C(Sc1c(-c2ccccc2)c(=O)n(-c2ccccc2)c(=S)n1-c1ccccc1)c1cccs1`, the TGI in the test with CCRF-CEM leukemia is 97.8 µM; in the test on HCT-116 colon, greater than 100 µM; in the test on HOP-62 NSCLC it was greater than 100 µM; with MALME-3M melanoma it was greater than 100 µM; in the test with NCI-H226 lung, greater than 100 µM; in the test on NCI-H460 lung it was greater than 100 µM. Besides, the TGI with SK-MEL-2 melanoma, in the test on SK-OV-3 ovarian, with SW-620 colon and in the test on UACC-257 melanoma was greater than 100 µM each time.

For the compound `CCOC(=O)CCC1(C(=O)OCC)CCCC1=O` (stereo not given), the TGI with CCRF-CEM leukemia, with HCT-116 colon, with HOP-62 NSCLC, in the test on MALME-3M melanoma, with NCI-H226 lung and in the test with NCI-H460 lung was greater than 100 µM throughout. The TGI in the test with SF-539 CNS, in the test with SK-MEL-2 melanoma, in the test on SK-OV-3 ovarian and in the test on UACC-257 melanoma was greater than 100 µM each time.

For the compound `C=C(C)C1CC/C(C)=C/CC[C@]2(C)O[C@@H]2CCC2=CC1OC2=O` (stereo not given in full), the GI50 was 10.3 µM in the test on CCRF-CEM leukemia; 27.6 µM in the test with HCT-116 colon; greater than 100 µM in the test with HOP-62 NSCLC; greater than 100 µM in the test with NCI-H226 lung; greater than 100 µM in the test with NCI-H460 lung; 57.5 µM in the test on SK-MEL-2 melanoma. In addition, in the test with SK-OV-3 ovarian, the GI50 is greater than 100 µM. Moreover, the TGI in the test on CCRF-CEM leukemia was 21.9 µM; in the test with HCT-116 colon, greater than 100 µM; in the test with HOP-62 NSCLC, greater than 100 µM; in the test on NCI-H226 lung, greater than 100 µM; in the test on NCI-H460 lung it was greater than 100 µM; in the test on SK-MEL-2 melanoma it was greater than 100 µM. In the test on SK-OV-3 ovarian, this compound showed a TGI greater than 100 µM.

For `CC1(C)C2CCC3(OCCO3)C1C(O)C2` (stereo not given), the TGI in the test with CCRF-CEM leukemia, with HCT-116 colon, in the test with HOP-62 NSCLC, in the test on MALME-3M melanoma, with NCI-H226 lung and in the test with NCI-H460 lung was greater than 100 µM throughout. The TGI in the test on SF-539 CNS, with SK-MEL-2 melanoma, in the test with SW-620 colon and in the test with UACC-257 melanoma was greater than 100 µM throughout.

As to `O=NN(CCF)C(=O)NC1CC2CCC1C2` (stereo not given), the TGI in the test on CCRF-CEM leukemia was greater than 100 µM; in the test on HCT-116 colon, greater than 100 µM; in the test on HOP-62 NSCLC it was 97.7 µM; in the test on MALME-3M melanoma, greater than 100 µM; with NCI-H460 lung it was greater than 100 µM; in the test with SF-539 CNS, greater than 100 µM. Further, the TGI in the test on SK-MEL-2 melanoma, with SK-OV-3 ovarian, in the test on SW-620 colon and in the test with UACC-257 melanoma was greater than 100 µM throughout.

For `COc1ccc2c(c1)OCCc1cn[nH]c1-2`, the TGI with CCRF-CEM leukemia, with HCT-116 colon, in the test with HOP-62 NSCLC, in the test on MALME-3M melanoma, with NCI-H460 lung and in the test with SF-539 CNS was greater than 100 µM in each case. Besides, the TGI with SK-MEL-2 melanoma, with SK-OV-3 ovarian, in the test with SW-620 colon and in the test on UACC-257 melanoma was greater than 100 µM in each case.
